Values joined by “and” are separate entries in the source; they are usually repeats but may differ in a detail not shown here. Identical values can stand only once.
Tests used:
FLT3D835Y = molecular target: T1, FLT3D835Y (Homo sapiens, UniProt P36888, D835Y); test: Biochemical kinase selectivity assay, FLT3 D835Y; details: in vitro kinase assay; read-out: FLT3D835Y IC50 (nM) ± SD
T1 construct: the biochemical assay only contains the kinase domain with a single, D835Y point mutation
T1 sequence (P36888 610-943 D835Y limits assumed): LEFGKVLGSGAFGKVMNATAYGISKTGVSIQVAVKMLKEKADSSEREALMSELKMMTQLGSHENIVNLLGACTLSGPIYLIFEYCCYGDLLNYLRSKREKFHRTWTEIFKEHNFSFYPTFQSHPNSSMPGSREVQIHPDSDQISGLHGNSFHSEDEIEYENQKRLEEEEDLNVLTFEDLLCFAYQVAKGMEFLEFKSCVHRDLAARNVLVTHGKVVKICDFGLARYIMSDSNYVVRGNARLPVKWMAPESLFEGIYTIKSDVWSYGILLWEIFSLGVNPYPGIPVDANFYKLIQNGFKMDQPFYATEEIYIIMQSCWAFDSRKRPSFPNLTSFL
Experimental: Kinase activity was measured in a microfluidics assay that monitors the separation of a phosphorylated product from substrate[31],[32]. The assay was run using a 12-sipper chip on a Caliper EZ Reader II (PerkinElmer®, Walthman, USA) with separation buffer (100 mM HEPES, 10 mM EDTA, 0.015% Brij-35, 0.1% CR-3 [PerkinElmer®, Walthman, USA]). In 96-well polypropylene plates (Greiner, Frickenhausen, Germany) compound stocks (20 mM in DMSO) were diluted into kinase buffer (50 mM HEPES, 0.075% Brij-35, 0.1% Tween 20, 2 mM DTT, 10 mM MgCl2, and 0.02% NaN3) in 12-point ½log dilutions (2 mM–6.32 nM). After, 1 μL was transferred into a 384-well polypropylene assay plate (Greiner, Frickenhausen, Germany). […] Percent inhibition was measured for each well comparing starting peptide to phosphorylated product peaks relative to the baseline. […] IC50 values were generated in duplicate and error was calculated from the standard deviation between values.
S10. Biochemical Inhibition Assay:1,2 Kinase activity was measured in a microfluidics assay that monitors the separation of a phosphorylated product from substrate. The assay was run using a 12-sipper chip on a Caliper EZ Reader II (PerkinElmer®, Walthman, USA) with separation buffer (100 mM HEPES, 10 mM EDTA, 0.015% Brij-35, 0.1% CR-3 [PerkinElmer®, Walthman, USA]). […]

Ba/F3 FLT3-ITD = test: Cell proliferation (CellTiter-Glo, 48 h), Ba/F3 FLT3-ITD; assay type: cell-based
Excerpt: Stable BaF3 populations expressing activated FLT3 were generated by retroviral spinfection with the appropriate mutated plasmid followed by selection and growth factor withdrawal as previously described. The BaF3 cell line was originally obtained from the laboratory of Charles Sawyers and has not been authenticated. MV411 and Molm14 cells were obtained from the laboratory of Scott Kogan and authenticated by Promega STR analysis in June 2013. All cell lines were mycoplasma-free. Cells were incubated with compounds for 48 hours and proliferation was assessed using CellTiter-Glo (Promega; Madison, WI) according to the manufacturer’s recommendation on a SpectraMax M3 microplate reader using SpectraMax Software (Molecular Devices; Sunnyvale, CA). All cell viability data shown is reflective of experiments performed a minimum of three times. […]
S13. Cell Cultures: Stable BaF3 populations expressing activated FLT3 were generated by retroviral spinfection with the appropriate mutated plasmid followed by selection and growth factor withdrawal as previously described .4 The BaF3 cell line was originally obtained from the laboratory of Charles Sawyers and has not been authenticated. MV411 and Molm14 cells were obtained from the laboratory of Scott Kogan and authenticated by Promega STR analysis in June
2013. All cell lines were mycoplasma -free. Cells were incubated with compounds for 48 hours and proliferation was assessed using CellTiter -Glo (Promega; Madison, WI) according to the manufacturer’s recommendation on a SpectraMax M3 microplate reader using SpectraMax Software (Molecular Devices; Sunnyvale, CA). All cell viability data shown is reflective of experiments performed a minimum of three times.

Row | IC50 (FLT3D835Y) | GI50 (Ba/F3 FLT3-ITD) [nM] | SMILES
1 | 72.5 nM and 72 nM | 131 | Cn1nc(C(C)(C)C)cc1NC(=O)Cc1ccc(Nc2cc(Nc3ccc(S(C)(=O)=O)cc3)ncn2)cc1 [13a, 2-(4-(6-(4-(Methylsulfonyl)phenylamino)pyrimidin-4-ylamino)phenyl)-N-(3-tert-butyl-1-methyl-1H-pyrazol-5-yl)acetamide]
2 | 13700 ± 234 nM | 40.5 | CC(C)(C)c1cc(NC(=O)Cc2ccc(Nc3cc(Nc4ccc(S(C)(=O)=O)cc4)ncn3)cc2)no1 [13k, 2-(4-(6-(4-(Methylsulfonyl)phenylamino)pyrimidin-4-ylamino)phenyl)-N-(5-tert-butylisoxazol-3-yl)acetamide]

Reference: paper PMC5829162, “Rational Design, Synthesis and Biological Evaluation of Pyrimidine-4,6-diamine derivatives as Type-II inhibitors of FLT3 Selective Against c-KIT” (Scientific Reports, 2018)
